Common to all, as to type: cell-based
For assay [1], the target named is T1, human TLR7 (Homo sapiens, UniProt Q9NYK1).
T1 construct: host or cells: HEK-Blue cells
T1 sequence (Q9NYK1 27-1049): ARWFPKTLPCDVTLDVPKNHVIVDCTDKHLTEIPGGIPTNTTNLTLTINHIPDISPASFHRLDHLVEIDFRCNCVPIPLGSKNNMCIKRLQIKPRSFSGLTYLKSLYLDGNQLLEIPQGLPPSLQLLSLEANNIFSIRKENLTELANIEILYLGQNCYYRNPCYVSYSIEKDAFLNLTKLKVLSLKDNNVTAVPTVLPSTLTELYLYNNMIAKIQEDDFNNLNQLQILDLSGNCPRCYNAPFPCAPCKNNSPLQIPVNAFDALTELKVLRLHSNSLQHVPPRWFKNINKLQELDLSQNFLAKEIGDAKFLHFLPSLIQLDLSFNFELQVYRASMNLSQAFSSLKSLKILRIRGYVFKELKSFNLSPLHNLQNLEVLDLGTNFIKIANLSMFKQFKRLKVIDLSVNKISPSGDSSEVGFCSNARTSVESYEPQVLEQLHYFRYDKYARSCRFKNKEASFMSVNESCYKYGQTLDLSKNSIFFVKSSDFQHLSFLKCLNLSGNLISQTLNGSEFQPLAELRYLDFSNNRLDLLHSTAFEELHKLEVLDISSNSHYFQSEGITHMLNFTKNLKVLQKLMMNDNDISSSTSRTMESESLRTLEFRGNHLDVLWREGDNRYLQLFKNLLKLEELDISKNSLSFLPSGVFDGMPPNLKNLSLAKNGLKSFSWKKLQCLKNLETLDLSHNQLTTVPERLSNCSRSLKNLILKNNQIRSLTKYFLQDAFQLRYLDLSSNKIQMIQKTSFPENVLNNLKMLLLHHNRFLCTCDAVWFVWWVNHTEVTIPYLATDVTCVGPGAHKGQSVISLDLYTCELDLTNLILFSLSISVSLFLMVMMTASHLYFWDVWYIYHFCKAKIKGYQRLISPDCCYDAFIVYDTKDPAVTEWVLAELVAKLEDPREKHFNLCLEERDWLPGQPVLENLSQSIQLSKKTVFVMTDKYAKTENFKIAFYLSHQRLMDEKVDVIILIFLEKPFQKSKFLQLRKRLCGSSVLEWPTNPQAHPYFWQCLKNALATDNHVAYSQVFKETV
The assay can be described thus: TLR7 inhibition reporter assay (HEK-Blue cells, SEAP reporter, gardiquimod stimulation). The conditions noted are these: HEK-Blue cells overexpressing human TLR7, SEAP reporter, gardiquimod 7.5 μM; read-out: TLR7 IC50. The method, boiled down: (§1)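 Dose–response from 0.05 nM to 50 μM was run in HEK-Blue human TLR7, TLR8 and TLR9 reporter cells. After 30 min at room temperature with compound, ligand was added (TLR7 gardiquimod 7.5 μM; TLR8 R848 15.9 μM; TLR9 ODN2006 5 nM) and SEAP measured next day, at 22 h.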

The target in assay [2] is T2, human TLR8 (Homo sapiens, UniProt Q9NR97).
T2 construct: host or cells: HEK-Blue cells
T2 sequence (Q9NR97 27-1041): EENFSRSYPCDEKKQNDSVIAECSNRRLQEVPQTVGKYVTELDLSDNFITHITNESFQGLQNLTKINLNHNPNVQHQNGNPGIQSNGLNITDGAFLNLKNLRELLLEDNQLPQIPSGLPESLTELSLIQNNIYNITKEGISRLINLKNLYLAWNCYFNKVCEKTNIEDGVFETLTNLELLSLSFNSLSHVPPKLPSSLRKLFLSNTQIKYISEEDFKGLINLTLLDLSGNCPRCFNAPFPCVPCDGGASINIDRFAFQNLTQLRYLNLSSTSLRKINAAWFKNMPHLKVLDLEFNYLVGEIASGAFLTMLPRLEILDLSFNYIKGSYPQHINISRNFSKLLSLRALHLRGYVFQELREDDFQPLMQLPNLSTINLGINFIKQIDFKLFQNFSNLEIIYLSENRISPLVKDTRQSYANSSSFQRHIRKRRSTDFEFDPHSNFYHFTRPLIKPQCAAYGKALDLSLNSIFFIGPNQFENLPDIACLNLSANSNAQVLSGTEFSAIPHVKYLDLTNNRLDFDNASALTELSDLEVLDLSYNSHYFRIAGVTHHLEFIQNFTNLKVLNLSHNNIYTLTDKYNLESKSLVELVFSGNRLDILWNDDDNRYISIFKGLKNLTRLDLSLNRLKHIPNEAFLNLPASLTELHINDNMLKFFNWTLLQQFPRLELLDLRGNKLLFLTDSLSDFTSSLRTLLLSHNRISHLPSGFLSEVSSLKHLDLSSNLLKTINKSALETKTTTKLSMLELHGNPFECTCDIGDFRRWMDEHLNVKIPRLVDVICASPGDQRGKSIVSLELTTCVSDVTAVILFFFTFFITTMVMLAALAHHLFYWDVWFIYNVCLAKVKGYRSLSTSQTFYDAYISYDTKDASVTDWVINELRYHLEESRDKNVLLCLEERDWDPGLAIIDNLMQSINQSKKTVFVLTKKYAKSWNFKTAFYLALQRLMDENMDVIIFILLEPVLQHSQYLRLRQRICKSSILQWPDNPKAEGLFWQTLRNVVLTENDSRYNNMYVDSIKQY
The assay is described as follows: TLR8 inhibition reporter assay (HEK-Blue cells, SEAP reporter, R848 stimulation). The conditions noted are these: HEK-Blue cells overexpressing human TLR8, SEAP reporter, R848 15.9 μM; read-out: TLR8 IC50. Put shortly: as §1
On the technique in general: In a reporter assay the amount or activity of a reporter protein is the signal.

For assay [3], the target named is T3, human TLR9 (Homo sapiens, UniProt Q9NR96).
T3 construct: host or cells: HEK-Blue cells
T3 sequence (Q9NR96 26-1032): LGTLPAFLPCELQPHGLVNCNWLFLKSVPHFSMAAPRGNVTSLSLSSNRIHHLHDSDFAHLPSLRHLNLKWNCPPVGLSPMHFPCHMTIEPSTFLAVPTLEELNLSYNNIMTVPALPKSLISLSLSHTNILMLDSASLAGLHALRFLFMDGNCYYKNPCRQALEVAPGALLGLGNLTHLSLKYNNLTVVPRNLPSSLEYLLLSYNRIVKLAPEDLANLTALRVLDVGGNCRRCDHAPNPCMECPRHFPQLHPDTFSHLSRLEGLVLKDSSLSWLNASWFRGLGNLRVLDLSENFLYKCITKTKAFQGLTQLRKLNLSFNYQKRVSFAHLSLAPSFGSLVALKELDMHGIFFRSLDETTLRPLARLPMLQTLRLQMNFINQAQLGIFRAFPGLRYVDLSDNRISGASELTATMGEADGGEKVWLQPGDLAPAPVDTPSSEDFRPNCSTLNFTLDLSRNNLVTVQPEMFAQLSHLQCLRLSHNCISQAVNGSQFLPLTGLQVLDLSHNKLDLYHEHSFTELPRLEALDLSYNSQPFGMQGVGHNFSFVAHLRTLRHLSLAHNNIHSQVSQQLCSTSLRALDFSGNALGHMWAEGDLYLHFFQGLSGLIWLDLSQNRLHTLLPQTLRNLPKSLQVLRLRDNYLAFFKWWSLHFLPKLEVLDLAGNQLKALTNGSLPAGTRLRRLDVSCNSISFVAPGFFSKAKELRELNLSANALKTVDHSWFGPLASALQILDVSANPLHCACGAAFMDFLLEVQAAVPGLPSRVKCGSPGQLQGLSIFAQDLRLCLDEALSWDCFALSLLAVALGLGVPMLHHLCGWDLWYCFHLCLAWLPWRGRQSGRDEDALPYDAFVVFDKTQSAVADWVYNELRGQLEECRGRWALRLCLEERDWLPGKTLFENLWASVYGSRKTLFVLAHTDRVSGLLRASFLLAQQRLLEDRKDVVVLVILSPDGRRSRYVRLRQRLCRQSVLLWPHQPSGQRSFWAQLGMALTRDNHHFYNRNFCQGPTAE
The assay can be described thus: TLR9 inhibition reporter assay (HEK-Blue cells, SEAP reporter, ODN2006 stimulation). To be noted: HEK-Blue cells overexpressing human TLR9, SEAP reporter, ODN2006 5 nM. The method, boiled down: as §1

Broadly, the IC50 is the concentration that gives 50% inhibition. Take `COc1cc(-c2[nH]c3sc(C4CCC(NC5(C)CCC5)CC4)nc3c2C(C)C)cn2ncnc12` (single isomer, unassigned) [Example 109, 4-(6-isopropyl-5-(8-methoxy-[1,2,4]triazolo[1,5-a]pyridin-6-yl)-4H-pyrrolo[3,2-d]thiazol-2-yl)-N-(1-methylcyclobutyl) cyclohexan-1-amine]: the results for the IC50 in assay [1], in assay [2] and in assay [3] were 6.81 nM, 27.9 nM and 6090 nM, respectively.

As for `COc1cc(-c2[nH]c3sc(C4CCC(N5CC6(CCOCC6)C5)CC4)nc3c2C(C)C)cn2ncnc12` (single isomer, unassigned) [Example 110, 2-(4-(6-isopropyl-5-(8-methoxy-[1,2,4]triazolo[1,5-a]pyridin-6-yl)-4H-pyrrolo[3,2-d]thiazol-2-yl)cyclohexyl)-7-oxa-2-azaspiro[3.5]nonane], the IC50 in assay [1] came to 2.21 nM; in assay [2], 0.93 nM; in assay [3] it was 5780 nM.

Take `COc1cc(-c2[nH]c3sc(C4CCC(N5CC6(CCOCC6)C5)CC4)nc3c2C(C)C)cn2ncnc12` (single isomer, unassigned) [Example 111, 2-(4-(6-isopropyl-5-(8-methoxy-[1,2,4]triazolo[1,5-a]pyridin-6-yl)-4H-pyrrolo[3,2-d]thiazol-2-yl)cyclohexyl)-7-oxa-2-azaspiro[3.5]nonane]: the IC50 in assay [1] is 2.97 nM; in assay [2] it was 33.7 nM; in assay [3], 3930 nM.

With `COc1cc(-c2[nH]c3sc(C4CCC(N5CCC6(CC5)COC6)CC4)nc3c2C(C)C)cn2ncnc12` (single isomer, unassigned) [Example 112, 7-(4-(6-isopropyl-5-(8-methoxy-[1,2,4]triazolo[1,5-a]pyridin-6-yl)-4H-pyrrolo[3,2-d]thiazol-2-yl)cyclohexyl)-2-oxa-7-azaspiro[3.5]nonane], the IC50 in assay [1] was 11.4 nM; in assay [2], 28.3 nM; in assay [3] it was greater than 50000 nM.

For the compound `COc1cc(-c2[nH]c3sc(C4CCC(N5CCC6(CC5)COC6)CC4)nc3c2C(C)C)cn2ncnc12` (single isomer, unassigned) [Example 113, 7-(4-(6-isopropyl-5-(8-methoxy-[1,2,4]triazolo[1,5-a]pyridin-6-yl)-4H-pyrrolo[3,2-d]thiazol-2-yl)cyclohexyl)-2-oxa-7-azaspiro[3.5]nonane], the figures for the IC50 in assay [1], in assay [2] and in assay [3] were 1.09 nM, 27.1 nM and 7800 nM, respectively.

On to `COc1cc(-c2[nH]c3sc(C4CCC(N5CCC6(CCNC6)C5)CC4)nc3c2C(C)C)cn2ncnc12` (single isomer, unassigned) [Example 114, 2-(4-(2,7-diazaspiro[4.4]nonan-2-yl)cyclohexyl)-6-isopropyl-5-(8-methoxy-[1,2,4]triazolo[1,5-a]pyridin-6-yl)-4H-pyrrolo[3,2-d]thiazole], for which the IC50 in assay [1] was 3.63 nM; in assay [2], 1.4 nM; in assay [3], 1460 nM.

In the case of `COc1cc(-c2[nH]c3sc(C4CCC(N5CCC6(CCNC6)C5)CC4)nc3c2C(C)C)cn2ncnc12` (single isomer, unassigned) [Example 115, 2-(4-(2,7-diazaspiro[4.4]nonan-2-yl)cyclohexyl)-6-isopropyl-5-(8-methoxy-[1,2,4]triazolo[1,5-a]pyridin-6-yl)-4H-pyrrolo[3,2-d]thiazole], the IC50 is 11.7 nM in assay [1], 17 nM in assay [2] and 1210 nM in assay [3].

Take `COc1cc(-c2[nH]c3sc(C4CCC(NC5CC6(CNC6)C5)CC4)nc3c2C(C)C)cn2ncnc12` (single isomer, unassigned) [Example 116, N-(4-(6-isopropyl-5-(8-methoxy-[1,2,4]triazolo[1,5-a]pyridin-6-yl)-4H-pyrrolo[3,2-d]thiazol-2-yl)cyclohexyl)-2-azaspiro[3.3]heptan-6-amine]: the IC50 in assay [1] came out at 3.11 nM; in assay [2], 1.91 nM; in assay [3], 3880 nM.

The values above are taken from patent US20230139171A1 (SITA Information Networking Computing UK Limited, priority 2019, published 2023).
